Measured values from patent US20090203709A1, “Pharmaceutical Dosage Form For Oral Administration Of Tyrosine Kinase Inhibitor” (ABBOTT LABORATORIES, priority 2008, published 2009).
Marks after values point to notes of the source that are not given here.

Experiment: Safety in study M04-710 (adverse events, DLTs)
Type: in vivo, human
[1] = all cycles, N = 27, highest grade per subject
[2] = all cycles, N = 27, includes Skin Reaction, Skin Lesion, and Rash

SMILES: Cc1ccc(F)c(NC(=O)Nc2ccc(-c3cccc4[nH]nc(N)c34)cc2)c1 [ABT-869, N-[4-(3-amino-1H-indazol-4-yl)phenyl]-N′-(2-fluoro-5-methylphenyl)urea]
- DLT: Grade 3 hypertension (0.10 mg/kg): 1 patient
- DLT: Grade 3 hypertension (0.25 mg/kg): 1 patient
- DLT: Grade 3 proteinuria (0.25 mg/kg): 1 patient
- DLT: Grade 3 proteinuria and Grade 3 hypertension (0.30 mg/kg): 2 patients
- DLT: Grade 3 fatigue (10 mg/body): 1 patient
- Anorexia, Overall (all cycles, N = 27): 7 (25.9) n (%)
- Arthralgia, Overall (all cycles, N = 27): 6 (22.2) n (%)
- Constipation, Overall (all cycles, N = 27): 6 (22.2) n (%)
- Diarrhoea, Overall (all cycles, N = 27): 7 (25.9) n (%)
- Fatigue, Overall (all cycles, N = 27): 22 (81.5) n (%)
- Hypertension, Overall (all cycles, N = 27): 12 (44.4) n (%)
- Myalgia, Overall (all cycles, N = 27): 15 (55.6) n (%)
- Nausea, Overall (all cycles, N = 27): 5 (18.5) n (%)
- Oral Pain, Overall (all cycles, N = 27): 11 (40.7) n (%)
- Proteinuria, Overall (all cycles, N = 27): 6 (22.2) n (%)
- Vomiting, Overall (all cycles, N = 27): 5 (18.5) n (%)
- Anorexia, Grade 1 [1]: 6 n
- Anorexia, Grade 2 [1]: 1 n
- Anorexia, Grade 3/4 [1]: 0 n
- Arthralgia, Grade 1 [1]: 5 n
- Arthralgia, Grade 2 [1]: 1 n
- Arthralgia, Grade 3/4 [1]: 0 n
- Constipation, Grade 1 [1]: 0 n
- Constipation, Grade 2 [1]: 6 n
- Constipation, Grade 3/4 [1]: 0 n
- Diarrhoea, Grade 1 [1]: 6 n
- Diarrhoea, Grade 2 [1]: 1 n
- Diarrhoea, Grade 3/4 [1]: 0 n
- Fatigue, Grade 1 [1]: 14 n
- Fatigue, Grade 2 [1]: 4 n
- Hypertension, Grade 1 [1]: 0 n
- Hypertension, Grade 2 [1]: 8 n
- Hypertension, Grade 3/4 [1]: 4 n
- Myalgia, Grade 1 [1]: 9 n
- Myalgia, Grade 2 [1]: 6 n
- Myalgia, Grade 3/4 [1]: 0 n
- Nausea, Grade 1 [1]: 3 n
- Nausea, Grade 2 [1]: 2 n
- Nausea, Grade 3/4 [1]: 0 n
- Oral Pain, Grade 1 [1]: 9 n
- Oral Pain, Grade 2 [1]: 2 n
- Oral Pain, Grade 3/4 [1]: 0 n
- Proteinuria, Grade 1 [1]: 0 n
- Proteinuria, Grade 2 [1]: 2 n
- Proteinuria, Grade 3/4 [1]: 4 n
- Vomiting, Grade 1 [1]: 4 n
- Vomiting, Grade 2 [1]: 1 n
- Vomiting, Grade 3/4 [1]: 0 n
- Skin Related Event, Grade 1 [2]: 5 n
- Skin Related Event, Grade 2 [2]: 9 n
- Skin Related Event, Grade 3/4 [2]: 1 n
- Skin Related Event, Overall [2]: 15 (55.6) n (%)
- Fatigue, Grade 3/4 (all cycles, N = 27, occurred in cycle 3 or later): 4** n
- dose-limiting toxicities (study M04-710): hypertension, proteinuria and fatigue are dose-limiting
- reversibility of toxicities (study M04-710): treatable, or reversible with ABT-869 interruption
